Assay [1] concerns the target T1, delF508-CFTR (Homo sapiens, UniProt P13569, DEL508-508).
T1 construct: functional activity of the CFTR channel (Chloride ion transport) in patient derived primary human bronchial epithelial cells; host or cells: patient-derived primary human bronchial epithelial cells (HBECs), delF508-CFTR
Put plainly: delF508-CFTR functional activity in primary human bronchial epithelial cells (HBECs), Multi-Transepithelial Clamp Circuit (MTECC-24) assay, equivalent short circuit current. It is filed as cell-based. The note with it: primary CF HBECs; for MTECC24 CFHBEC-Amax %: relative to reference combination 2 μM 3-(6-(1-(2,2-difluorobenzo[d][1,3]dioxol-5-yl)cyclopropane-1-carboxamido)-3-methylpyridin-2-yl)benzoic acid (24 h) + 0.5 μM N-(2,4-di-tert-butyl-5-hydroxyphenyl)-4-oxo-1,4-dihydroquinoline-3-carboxamide; for EC50: test compound added 24 h before assay, potentiator (S)-3-amino-6-methoxy-N-(3,3,3-trifluoro-2-hydroxy-2-methylpropyl)-5-(trifluoromethyl)picolinamide present at assay, mean of at least two replicates, read-out: MTECC24 CFHBEC-EC50. The essentials:
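Patient-derived delF508 HBECs, grown at air-liquid interface about two weeks, were corrected with compound basolaterally for 24 h. Compound was then re-added apically and basolaterally in HEPES pH7.4 assay medium, with sequential modulators including forskolin and the picolinamide potentiator. Ieq was recorded, normalised to 0.1% DMSO wells, and EC50 fitted from 10-point curves.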

Assay [2] addresses T2, delF508-CFTR-HRP (Homo sapiens, UniProt P13569, DEL508-508).
T2 construct: expressed in transfected cells
Put plainly: Measurement of delF508-CFTR-HRP surface expression in CFBE41o- cells (HRP luminescence).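 For DelF508-CFTR-HRP Amax %: percent efficacy relative to a reference CFTR corrector compound.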 It is filed as cell-based. Conditions: for Emax: CFBE41o-, read-out: DelF508-CFTR-HRP Amax %; for EC50: mean of at least two replicates. In short, it runs like this:
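Stably transfected CFBE41o- cells carrying HRP in the fourth extracellular loop of delF508-CFTR, induced with 500 ng/mL doxycycline for 48 h, then compound-treated 24 h at 37° C (10-point, 3-fold, top 10 μM). Surface HRP detected by luminescent substrate; EC50 from logistic fit, triplicates, normalized to lowest-concentration median.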

This is an account of results in US20220033407A1, “N-(pyridin-2-ylsulfonyl)cyclopropanecarboxamide Derivatives and their Use in the Treatment of Disease” (NOVARTIS AG, priority 2018, published 2022).

T1 sequence (P13569 with tags, fused parts or gaps DEL508-508): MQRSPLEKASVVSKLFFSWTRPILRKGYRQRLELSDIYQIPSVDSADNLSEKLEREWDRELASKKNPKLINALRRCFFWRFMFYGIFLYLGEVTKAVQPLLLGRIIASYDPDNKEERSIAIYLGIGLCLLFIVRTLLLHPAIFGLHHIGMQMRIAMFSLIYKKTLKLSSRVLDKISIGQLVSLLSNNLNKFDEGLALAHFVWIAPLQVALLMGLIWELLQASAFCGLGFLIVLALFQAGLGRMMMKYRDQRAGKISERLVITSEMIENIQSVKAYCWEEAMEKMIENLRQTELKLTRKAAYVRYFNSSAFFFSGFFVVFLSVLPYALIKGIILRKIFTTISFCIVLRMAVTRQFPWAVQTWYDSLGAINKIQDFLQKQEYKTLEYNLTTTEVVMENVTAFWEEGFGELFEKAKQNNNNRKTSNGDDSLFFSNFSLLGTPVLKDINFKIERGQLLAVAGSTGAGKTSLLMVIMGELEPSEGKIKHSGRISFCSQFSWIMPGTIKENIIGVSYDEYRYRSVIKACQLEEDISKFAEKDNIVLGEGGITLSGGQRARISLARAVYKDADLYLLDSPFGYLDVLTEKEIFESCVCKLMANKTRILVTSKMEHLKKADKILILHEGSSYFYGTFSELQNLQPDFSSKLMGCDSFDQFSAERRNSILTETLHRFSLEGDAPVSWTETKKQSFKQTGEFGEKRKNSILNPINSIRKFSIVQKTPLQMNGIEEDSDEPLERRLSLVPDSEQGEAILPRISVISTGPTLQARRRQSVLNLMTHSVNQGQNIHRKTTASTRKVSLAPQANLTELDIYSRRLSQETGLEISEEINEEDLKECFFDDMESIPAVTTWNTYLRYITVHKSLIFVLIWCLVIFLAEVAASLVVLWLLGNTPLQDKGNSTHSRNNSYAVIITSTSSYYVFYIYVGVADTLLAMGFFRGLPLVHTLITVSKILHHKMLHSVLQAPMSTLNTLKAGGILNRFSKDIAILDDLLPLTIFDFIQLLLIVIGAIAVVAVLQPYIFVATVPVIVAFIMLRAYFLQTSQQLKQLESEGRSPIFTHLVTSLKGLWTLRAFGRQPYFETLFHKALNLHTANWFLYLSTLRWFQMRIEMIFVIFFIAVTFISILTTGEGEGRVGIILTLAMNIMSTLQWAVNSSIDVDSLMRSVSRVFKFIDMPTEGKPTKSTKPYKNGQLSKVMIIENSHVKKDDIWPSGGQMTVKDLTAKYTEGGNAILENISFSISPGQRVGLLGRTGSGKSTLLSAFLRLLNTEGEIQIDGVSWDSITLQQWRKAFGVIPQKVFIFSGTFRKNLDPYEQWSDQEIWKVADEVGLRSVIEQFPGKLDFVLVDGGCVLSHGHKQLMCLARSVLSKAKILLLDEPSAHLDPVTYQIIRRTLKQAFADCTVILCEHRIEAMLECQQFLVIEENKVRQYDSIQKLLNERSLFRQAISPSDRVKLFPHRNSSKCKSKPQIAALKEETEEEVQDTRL
T2 sequence (P13569 with tags, fused parts or gaps DEL508-508): as above

For `C[C@H](O)CNc1cccc(S(=O)(=O)NC(=O)C2(Oc3cc(Cl)ccc3C3CC3)CC2)n1` [Example 4-15, (S)-1-(5-Chloro-2-cyclopropylphenoxy)-N-((6-((2-hydroxypropyl)amino)pyridin-2-yl)sulfonyl)cyclopropane-1-carboxamide], in assay [1], the “MTECC24 CFHBEC-Amax %” value is reported as 35% and the EC50 was 69 nM. Moreover, in assay [2], the Emax is 114% and it took 4160 nM to reach a half-maximal effect (EC50).

On to `Cc1ccc(C2CCCCC2)c(OC2(C(=O)NS(=O)(=O)c3cccc(N4CCNCC4)n3)CC2)c1` [Example 2-31, 1-(2-Cyclohexyl-5-methylphenoxy)-N-((6-(piperazin-1-yl)pyridin-2-yl)sulfonyl)cyclopropanecarboxamide], for which, in assay [1], the “MTECC24 CFHBEC-Amax %” value is given as 89% and the EC50 stood at 421 nM. Also, in assay [2], the Emax was found to be 96% and the midpoint of the response, the EC50, lay at 3250 nM.

Take `Cc1ccc(C2CCCCC2)c(OC2(C(=O)NS(=O)(=O)c3cccc(N4CCN(C(=O)OC(C)(C)C)CC4)n3)CC2)c1` [Example 2-34, Tert-butyl 4-(6-(N-(1-(2-cyclohexyl-5-methylphenoxy)cyclopropanecarbonyl)sulfamoyl)pyridin-2-yl)piperazine-1-carboxylate]: in assay [1], the “MTECC24 CFHBEC-Amax %” value was 57% and the EC50 worked out at 15 nM. Also, in assay [2], the Emax came to 366% and the midpoint of the response, the EC50, lay at 1100 nM.

Turning to `Cc1ccc(C2CCC(F)(F)CC2)c(OC2(C(=O)NS(=O)(=O)c3cccc(NC[C@@H](C)O)n3)CC2)c1` [Example 3-4, (R)-1-(2-(4,4-Difluorocyclohexyl)-5-methylphenoxy)-N-((6-((2-hydroxypropyl)amino)pyridin-2-yl)sulfonyl)cyclopropane-1-carboxamide], in assay [1], the “MTECC24 CFHBEC-Amax %” value amounted to 87% and the EC50 is 92 nM. For the same compound, in assay [2], the Emax was determined as 318% and the EC50 came to 3850 nM.

As to `Cc1ccc(C2CCCCC2)c(OC2(C(=O)NS(=O)(=O)c3cccc(N4C[C@@H]5C[C@@H]5[C@H](N)C4)n3)CC2)c1` (relative stereo) [Example 2-44, N-((6-(5-cis-amino-3-azabicyclo[4.1.0]heptan-3-yl)pyridin-2-yl)sulfonyl)-1-(2-cyclohexyl-5-methylphenoxy)cyclopropane-1-carboxamide], in assay [1], the “MTECC24 CFHBEC-Amax %” value worked out at 66% and the EC50 turned out to be 256 nM. Also, in assay [2], the Emax stood at 120% and it took 3980 nM to reach a half-maximal effect (EC50).

As to `Cc1ccc(C2CCCCC2)c(OC2(C(=O)NS(=O)(=O)c3cccc(N4CCC(C)(NC(=O)NC5CC5)CC4)n3)CC2)c1` [Example 2-11, 1-(2-Cyclohexyl-5-methylphenoxy)-N-((6-(4-(3-cyclopropylureido)-4-methylpiperidin-1-yl)pyridin-2-yl)sulfonyl)cyclopropanecarboxamide], in assay [1], the “MTECC24 CFHBEC-Amax %” value came to 77% and the 50% effective concentration (EC50) amounted to 20 nM. In addition, in assay [2], the Emax was 286% and it took 2590 nM to reach a half-maximal effect (EC50).

Consider `Cc1ccc(C2CCCCC2)c(OC2(C(=O)NS(=O)(=O)c3cccc(N4CCC(C)(N)CC4)n3)CC2)c1` [Example 2-9, N-((6-(4-Amino-4-methylpiperidin-1-yl)pyridin-2-yl)sulfonyl)-1-(2-cyclohexyl-5-methylphenoxy)cyclopropanecarboxamide], for which, in assay [1], the “MTECC24 CFHBEC-Amax %” value worked out at 121% and the EC50 turned out to be 103 nM. Moreover, in assay [2], the Emax stood at 253% and the response was half-maximal at 2570 nM (EC50).

Consider `Cc1ccc(C2CCCCC2)c(OC2(C(=O)NS(=O)(=O)c3cccc(N4CCC(C)(C#N)CC4)n3)CC2)c1` [Example 2-15, N-((6-(4-cyano-4-methylpiperidin-1-yl)pyridin-2-yl)sulfonyl)-1-(2-cyclohexyl-5-methylphenoxy)cyclopropanecarboxamide], for which, in assay [1], the “MTECC24 CFHBEC-Amax %” value stood at 101% and the EC50 amounted to 3 nM. In assay [2], the Emax is 284% and the midpoint of the response, the EC50, lay at 940 nM.

Take `Cc1ccc(C2(C(F)(F)F)CC2)c(OC2(C(=O)NS(=O)(=O)c3cccc(N4CC(C)(O)C4)n3)CC2)c1` [Example 4-17, N-((6-(3-Hydroxy-3-methylazetidin-1-yl)pyridin-2-yl)sulfonyl)-1-(5-methyl-2-(1-(trifluoromethyl)cyclopropy)phenoxy)cyclopropane-1-carboxamide]: in assay [1], the “MTECC24 CFHBEC-Amax %” value is given as 55% and the half-maximal effective concentration (EC50) worked out at 76 nM. Besides, in assay [2], the Emax is 156% and a half-maximal response (EC50) required 4030 nM.

Take `O=C(NS(=O)(=O)c1cccc(N2CCC(O)CC2)n1)C1(Oc2cc(Cl)ccc2C2CC3(CCC3)C2)CC1` [Example 7-11, 1-(5-Chloro-2-(spiro[3.3]heptan-2-yl)phenoxy)-N-((6-(4-hydroxypiperidin-1-yl)pyridin-2-yl)sulfonyl)cyclopropane-1-carboxamide]: in assay [1], the “MTECC24 CFHBEC-Amax %” value is 154.0% and the concentration giving a half-maximal response (EC50) was determined as 197 nM. Besides, in assay [2], the Emax worked out at 446% and the EC50 is 1260 nM.

Consider `Cc1ccc(C2CCCCC2)c(OC2(C(=O)NS(=O)(=O)c3cccc(N(C)C)n3)CC2)c1` [Example 2-25, 1-(2-Cyclohexyl-5-methylphenoxy)-N-((6-(dimethylamino)pyridin-2-yl)sulfonyl)cyclopropanecarboxamide], for which, in assay [1], the “MTECC24 CFHBEC-Amax %” value is given as 89% and the EC50 was found to be 1 nM. In assay [2], the Emax was 661% and the EC50 stood at 1440 nM.

For `Cc1ccc(C2CCCCC2)c(OC2(C(=O)NS(=O)(=O)c3cccc(N4CC5(CCN5C(=O)OC(C)(C)C)C4)n3)CC2)c1` [Example 2-30, Tert-butyl 6-(6-(N-(1-(2-cyclohexyl-5-methylphenoxy)cyclopropanecarbonyl)sulfamoyl)pyridin-2-yl)-1,6-diazaspiro[3.3]heptane-1-carboxylate], in assay [1], the “MTECC24 CFHBEC-Amax %” value turned out to be 69% and the half-maximal effective concentration (EC50) was determined as 23 nM. In assay [2], the Emax was found to be 243% and the EC50 was 1790 nM.

On to `Cc1ccc(C2CCCCC2)c(OC2(C(=O)NS(=O)(=O)c3cccc(N4CCO[C@@H](C)C4)n3)CC2)c1` [Example 2-52, (S)-1-(2-Cyclohexyl-5-methylphenoxy)-N-((6-(2-methylmorpholino)pyridin-2-yl)sulfonyl)cyclopropane-1-carboxamide], for which, in assay [1], the “MTECC24 CFHBEC-Amax %” value was 75% and the half-maximal effective concentration (EC50) came to 7 nM. In assay [2], the Emax is 416% and the EC50 turned out to be 1290 nM.

On to `Cc1ccc(-c2cccc(C(F)(F)F)c2)c(OC2(C(=O)NS(=O)(=O)c3cccc(N4CC[C@H](O)C4)n3)CC2)c1` [Example 5-1, (S)-N-((6-(3-Hydroxypyrrolidin-1-yl)pyridin-2-yl)sulfonyl)-1-((4-methyl-3′-(trifluoromethyl)-[1,1′-biphenyl]-2-yl)oxy)cyclopropane-1-carboxamide], for which, in assay [1], the “MTECC24 CFHBEC-Amax %” value is 88% and the EC50 stood at 16 nM. In assay [2], the Emax amounted to 503% and a half-maximal response (EC50) required 1950 nM.

For the compound `Cc1ccc(C2CCCCC2)c(OC2(C(=O)NS(=O)(=O)c3cccc(NCC(C)O)n3)CC2)c1` (stereo not shown) [Example 2-45, 1-(2-Cyclohexyl-5-methylphenoxy)-N-((6-((2-hydroxypropyl)amino)pyridin-2-yl)sulfonyl)cyclopropane-1-carboxamide], in assay [1], the “MTECC24 CFHBEC-Amax %” value is 95% and the EC50 is 6 nM. Further, in assay [2], the Emax was found to be 816% and a half-maximal response (EC50) required 2230 nM.

Turning to `Cc1ccc(C2CCC(F)(F)CC2)c(OC2(C(=O)NS(=O)(=O)c3cccc(N)n3)CC2)c1` [Example 1-4, N-((6-Aminopyridin-2-yl)sulfonyl)-1-(2-(4,4-difluorocyclohexyl)-5-methylphenoxy)cyclopropane-1-carboxamide], in assay [1], the “MTECC24 CFHBEC-Amax %” value worked out at 59% and the EC50 came out at 437 nM. For the same compound, in assay [2], the Emax is 260% and the concentration for a half-maximal effect (EC50) is 3970 nM.

On to `NC1(C(F)(F)F)CCN(c2cccc(S(=O)(=O)NC(=O)C3(Oc4cc(Cl)ccc4C4CC5(CCC5)C4)CC3)n2)CC1` [Example 7-17, N-((6-(4-amino-4-(trifluoromethyl)piperidin-1-yl)pyridin-2-yl)sulfonyl)-1-(5-chloro-2-(spiro[3.3]heptan-2-yl)phenoxy)cyclopropane-1-carboxamide], for which, in assay [1], the “MTECC24 CFHBEC-Amax %” value came to 128.4% and the EC50 came out at 57 nM. In assay [2], the Emax turned out to be 377% and the EC50 is 420 nM.

`Cc1ccc(C2CCC(F)(F)CC2)c(OC2(C(=O)NS(=O)(=O)c3cccc(N[C@H](C)CO)n3)CC2)c1` [Example 3-5]: in assay [1], the “MTECC24 CFHBEC-Amax %” value is 64% and the EC50 was 52 nM. Further, in assay [2], the Emax came to 363% and a half-maximal response (EC50) required 3970 nM.

`Cc1ccc(C2CCC(F)(F)CC2)c(OC2(C(=O)NS(=O)(=O)c3cccc(N4CC(C)(NC(=O)OC(C)(C)C)C4)n3)CC2)c1` [Example 3-6, Tert-butyl (1-(6-(N-(1-(2-(4,4-difluorocyclohexyl)-5-methylphenoxy)cyclopropane-1-carbonyl)sulfamoyl)pyridin-2-yl)-3-methylazetidin-3-yl)carbamate]: in assay [1], the “MTECC24 CFHBEC-Amax %” value is 57% and the EC50 was 57 nM. In addition, in assay [2], the Emax worked out at 380% and the EC50 was determined as 2660 nM.

For orientation: EC50 means the concentration at which the effect is half-maximal.
